Reference: paper PMC10442599 (RSC Advances, 2023)
Entries after “also recorded” stand apart in the source; their conditions may differ.

Key:
Assay type in all cases: biochemical
[1] = target: T1, MAO-B (Homo sapiens, UniProt P27338); test: Inhibition of MAO-B; details: for SI (MAO), selectivity index = IC50 (MAO-A)/IC50(MAO-B): MAO-B over MAO-A; for remaining activity at 10 µM: read-out: Residual activities at 10 μM (%) MAO-B
T1 sequence (P27338 1-520): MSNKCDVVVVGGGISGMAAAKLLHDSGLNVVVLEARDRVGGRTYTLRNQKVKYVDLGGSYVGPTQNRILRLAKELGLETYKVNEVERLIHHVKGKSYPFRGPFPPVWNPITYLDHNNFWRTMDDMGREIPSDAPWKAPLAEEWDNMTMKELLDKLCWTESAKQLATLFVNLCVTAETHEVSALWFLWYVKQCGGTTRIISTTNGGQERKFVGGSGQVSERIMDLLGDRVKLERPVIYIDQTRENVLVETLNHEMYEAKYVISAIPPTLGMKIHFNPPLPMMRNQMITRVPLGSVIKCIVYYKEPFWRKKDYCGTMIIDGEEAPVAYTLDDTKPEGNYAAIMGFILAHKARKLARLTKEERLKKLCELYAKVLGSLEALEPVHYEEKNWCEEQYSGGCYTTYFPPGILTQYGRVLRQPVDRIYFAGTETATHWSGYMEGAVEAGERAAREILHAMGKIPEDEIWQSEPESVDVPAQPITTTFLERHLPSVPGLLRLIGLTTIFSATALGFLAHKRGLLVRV

[2] = test system: AChE; test: Residual activity of AChE at 10 μM; details: inhibitor 10 μM
[3] = test system: BChE; test: Residual activity of BChE at 10 μM; details: inhibitor 10 μM
[4] = target: T2, Recombinant human MAO-A (Homo sapiens, UniProt P21397); test: Inhibition of MAO-A; details: for remaining activity at 10 µM: read-out: Residual activities at 10 μM (%) MAO-A
T2 sequence (P21397 1-527): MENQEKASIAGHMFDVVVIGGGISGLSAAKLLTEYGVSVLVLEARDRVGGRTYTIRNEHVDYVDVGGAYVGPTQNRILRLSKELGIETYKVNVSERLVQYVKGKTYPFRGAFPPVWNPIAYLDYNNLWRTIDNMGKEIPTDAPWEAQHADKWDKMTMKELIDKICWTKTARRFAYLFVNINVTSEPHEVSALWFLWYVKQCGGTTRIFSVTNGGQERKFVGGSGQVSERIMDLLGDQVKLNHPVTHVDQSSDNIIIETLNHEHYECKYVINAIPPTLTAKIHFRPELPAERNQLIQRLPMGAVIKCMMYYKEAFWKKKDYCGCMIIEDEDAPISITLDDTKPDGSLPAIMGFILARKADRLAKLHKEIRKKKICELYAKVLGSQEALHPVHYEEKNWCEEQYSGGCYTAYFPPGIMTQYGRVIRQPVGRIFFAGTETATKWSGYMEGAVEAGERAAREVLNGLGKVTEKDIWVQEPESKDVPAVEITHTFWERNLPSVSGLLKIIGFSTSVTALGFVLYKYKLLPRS

[5] = target: T1, MAO-B; test: Reversibility of MAO-B inhibition by dialysis; details: 2-times IC50
[6] = target: T1, MAO-B; test: Enzyme kinetics of MAO-B inhibition

| Compound | IC50 [1] [µM] | SI (MAO), selectivity index = IC50 (MAO-A)/IC50(MAO-B) [1] | remaining activity at 10 µM [1] [%] | Residual activities at 10 μM (%) AChE [2] [%] | Residual activities at 10 μM (%) BChE [3] [%] | IC50 [4] [µM] | remaining activity at 10 µM [4] [%] | Reversibility of MAO-B inhibition [5] | Ki [6] [µM] | Type of MAO-B inhibition ([6]; Lineweaver–Burk plot) |
| --- | --- | --- | --- | --- | --- | --- | --- | --- | --- | --- |
| O=C1c2ccccc2NC12CCCC2 [Compound 10a] | 15.6 ± 2.33 | 1.34 | 57 ± 2.99 | 76.29 ± 6.64 | 73.90 ± 4.90 | 20.8 ± 2.89 | 66.9 ± 2.47 | – | – | – |
| Cc1ccc2c(c1)C(=O)C1(CCCC1)N2 [Compound 10b] | > 40 | – | 82.2 ± 9.06 | 83.39 ± 1.93 | 73.82 ± 7.10 | > 40 | 72.2 ± 3.58 | – | – | – |
| Cc1ccc2c(c1)C(=O)C1(CCCC1)N2Cc1ccccc1 [Compound 11b] | 5.99 ± 0.36 | – | 26.1 ± 2.75 | 80.92 ± 5.07 | 65.10 ± 0.74 | > 40 | 79.6 ± 5.03 | – | – | – |
| O=C1c2cc(Br)ccc2N(Cc2ccccc2)C12CCCC2 [Compound 11d] | 2.81 ± 0.71 | 5.00 | -16.2 ± 2.34 | 81.90 ± 1.22 | 71.19 ± 4.17 | 14 ± 0.96 | 62 ± 0.94 | – | – | – |
| O=C1c2ccccc2N(Cc2ccc(Br)cc2)C12CCCC2 [Compound 11f] | 1.44 ± 0.21 | 11.91 | 5.22 ± 1.06 | 68.95 ± 0.39 | 72.06 ± 6.88 | 17.2 ± 1.14 | 67.9 ± 6.53 | reversible | 0.51 ± 0.023 | competitive inhibitor; also recorded: competitive inhibition |
| O=C1c2ccccc2N(Cc2ccccc2Br)C12CCCC2 [Compound 11k] | 14.3 ± 1.45 | 0.63 | 60.2 ± 1.44 | 68.03 ± 3.68 | 51.41 ± 0.53 | 9.01 ± 0.36 | 41.9 ± 4.56 | – | – | – |
